Test results published in patent publication US4943579A, “Water soluble prodrugs of camptothecin” (priority 1987, dated 1990).
Values after ≈ are worked out from the molar mass of the structure shown. Where a name gives a salt, the structure may show the parent alone. Read-outs that look alike come from different tables or passages of the source.

Legend:
[1] = subsequent biological evaluation in earlier reports; cited from earlier work
Aqueous solubility = format: physicochemical; settings: water
Procedure: (§1) Table 1 represents the aqueous solubility and the anti-tumor activity of these compounds. The anti-tumor testing was carried out in CDF-1 mice in which were implanted L-1210 lymphoid leukemia, and the drug is delivered intraperitoneally on a schedule of QD4X2.

L-1210 lymphoid leukemia = assay: Anti-tumor activity in CDF-1 mice implanted with L-1210 lymphoid leukemia (IP/IP, QD4 × 2); format: in vivo; settings: Mus musculus, read-out: T/C; for response vs control in vivo at 30 mg/kg: 30 mg/Kg per injection; for response vs control in vivo at 50 mg/kg: 50 mg/Kg per injection
Procedure: as §1

leukemia L-1210 = settings: mice; cited from earlier work
Walker 256 tumor = settings: rats; cited from earlier work
[2] = preclinical, beagle and rhesus monkey; cited from earlier work
[3] = cited from earlier work
[4] = In vitro murine plasma hydrolysis of prodrugs; format: in vitro ADME; settings: mouse, initial drug concentration 50 mcg/ml, read-out: t1/2 of hydrolysis in murine plasma
Source text: (§2) The data are shown to reflect the relative hydrolysis rates as measured by t1/2, the time required for the concentration of the drug to become one half of the starting concentration. Freshly obtained samples of human and murine plasma were used in these studies.
(§3) ^(a) Initial drug concentration (50 mcg/ml)

[5] = In vitro human plasma hydrolysis of prodrugs; format: in vitro ADME; settings: initial drug concentration 50 mcg/ml, read-out: t1/2 of hydrolysis in human plasma
Source text: as §2, §3

[6] = animal models; Wani et al. 1980; cited from earlier work
[7] = early clinical studies; cited from earlier work

Compound: CC[C@@]1(O)C(=O)OCc2c1cc1n(c2=O)Cc2cc3ccccc3nc2-1 [Camptothecin]
- Toxicity [1]: highly toxic
- solubility (Aqueous solubility): 50 µg/mL (≈ 144 µM)
- response vs control in vivo at 8 mg/kg (L-1210 lymphoid leukemia; L1210, ip): 197%
- Carcinostatic activity, leukemia L-1210 (leukemia L-1210): inhibitor activity
- Carcinostatic activity, Walker 256 tumor (Walker 256 tumor): inhibitor activity
- Eosinophilia and bone marrow depression [2]: moderate eosinophilia and bone marrow depression
- Hepatotoxicity [2]: Minimal hepatotoxicity
- Major dose-limiting toxic effect [2]: Hemorrhagic enterocolitis
- Solubility in aqueous vehicles ([3]; aqueous vehicles suitable for parenteral administration): practically insoluble

Compound: CC[C@@]1(OC(=O)CN)C(=O)OCc2c1cc1n(c2=O)Cc2cc3ccccc3nc2-1 [Formula 7, Camptothecin-20-O-glycinate.HCl]
- solubility (Aqueous solubility; read-out: Aqueous solubility): 6000 µg/mL
- response vs control in vivo at 15 mg/kg (L-1210 lymphoid leukemia; L1210, 15 mg/Kg per injection, IP/IP, QD4 × 2): 162%
- half-life [4]: 36 min
- half-life [5]: 15 min

Compound: CC[C@@]1(OC(=O)CNC)C(=O)OCc2c1cc1n(c2=O)Cc2cc3ccccc3nc2-1 [Formula 8]
- solubility (Aqueous solubility; read-out: Aqueous solubility): 4000 µg/mL
- response vs control in vivo at 30 mg/kg (L-1210 lymphoid leukemia; L1210, IP/IP, QD4 × 2): 191%
- half-life [4]: 28 min
- half-life [5]: 13 min

Compound: CCNCC(=O)O[C@]1(CC)C(=O)OCc2c1cc1n(c2=O)Cc2cc3ccccc3nc2-1 [Formula 9]
- solubility (Aqueous solubility; read-out: Aqueous solubility): 8000 µg/mL
- response vs control in vivo at 30 mg/kg (L-1210 lymphoid leukemia; L1210, IP/IP, QD4 × 2): 170%
- half-life [4]: 40 min
- half-life [5]: 18 min

Compound: CCN(CC)CC(=O)O[C@]1(CC)C(=O)OCc2c1cc1n(c2=O)Cc2cc3ccccc3nc2-1 [Formula 10, Camptothecin-20-O-(N,N-diethyl)glycinate.HCl]
- solubility (Aqueous solubility; read-out: Aqueous solubility): 5000 µg/mL
- response vs control in vivo at 30 mg/kg (L-1210 lymphoid leukemia; L1210, IP/IP, QD4 × 2): 256%
- half-life [5]: 45 min

Compound: CC[C@@]1(OC(=O)C(N)CCCCCN)C(=O)OCc2c1cc1n(c2=O)Cc2cc3ccccc3nc2-1 (some centres unmarked) [Formula 12]
- solubility (Aqueous solubility; read-out: Aqueous solubility): 15000 µg/mL
- response vs control in vivo at 50 mg/kg (L-1210 lymphoid leukemia; L1210, IP/IP, QD4 × 2): 253%
- half-life [4]: 48 min
- half-life [5]: 20 min

Compound: CC[C@@]1(OC(=O)C(N)CCC(=O)O)C(=O)OCc2c1cc1n(c2=O)Cc2cc3ccccc3nc2-1 (some centres unmarked) [Formula 13]
- solubility (Aqueous solubility; read-out: Aqueous solubility): 6000 µg/mL
- response vs control in vivo at 50 mg/kg (L-1210 lymphoid leukemia; L1210, IP/IP, QD4 × 2): 154%
- half-life [4]: 35 min
- half-life [5]: 18 min

Compound: CC[C@@]1(OC(=O)CCC(=O)O)C(=O)OCc2c1cc1n(c2=O)Cc2cc3ccccc3nc2-1 [Formula 14, Camptothecin-20-O-hemisuccinate sodium salt]
- solubility (Aqueous solubility; read-out: Aqueous solubility): 13000 µg/mL
- response vs control in vivo at 47 mg/kg (L-1210 lymphoid leukemia; L1210, 47 mg/Kg per injection, IP/IP, QD4 × 2): 200%
- half-life [4]: 40 min
- half-life [5]: 16 min

Compound: CC[C@@]1(OP(=O)(O)O)C(=O)OCc2c1cc1n(c2=O)Cc2cc3ccccc3nc2-1 [Formula 15, Camptothecin-20-phosphate sodium salt]
- solubility (Aqueous solubility; read-out: Aqueous solubility): 8000 µg/mL
- response vs control in vivo at 44 mg/kg (L-1210 lymphoid leukemia; L1210, 44 mg/Kg per injection, IP/IP, QD4 × 2): 192%
- half-life [4]: 27 min
- half-life [5]: 20 min

Compound: CC[C@@](O)(C(=O)O)c1cc2n(c(=O)c1CO)Cc1cc3ccccc3nc1-2 [Sodium camptothecin]
- Potency relative to parent camptothecin [6]: 10-20%
- Clinical outcome [7]: disappointing
- Clinical toxicity [7]: unexpected toxicity that precluded achievement of therapeutically useful doses
- Solubility in water ([3]; in water): > 50000 µg/mL
